Results on 5 compounds are retold here after article PMC12153776, “Synthesis and Preliminary Cytotoxicity Evaluation of 3-Lup-20(29)-Ene-3β,28-Diol Glycoconjugates Containing a Succinic Linker and a 1,2,3-Triazole Ring” (Cancers, 2025).

One data set concerns MCF-7 cell line. More on the design: method as in PMID 33353244. The settings on record: previous study; cited from earlier work.
Another data set deals with healthy cells. More on the design: method as in PMID 33353244. To be noted: previous study; cited from earlier work.
Data set [1] relates to MCF-7 (human breast adenocarcinoma cell line). The data set can be described thus: MTT cytotoxicity assay, MCF-7 cells. The format is cell-based. To be noted: for IC50: Homo sapiens, MCF7, 72 h, MTT, incubation 72 h. The protocol:
(§1) For biological studies three different cell lines were used: the NHDF-Neo cell line (Lonza, Poland), the HCT-116 cell line (American Type Culture Collection, ATCC, Manassas, VA, USA), and the MCF-7 cell line (purchased by the Maria Sklodowska-Curie Memorial Cancer Center and Institute of Oncology, Gliwice, Poland and gifted for our research). Cells were cultured in 96-well plates (Sarstedt, Nümbrecht, Germany) using RPMI 1640 or DMEM/F12 media (100 µL per well) supplemented with fetal bovine serum (FBS, EURx, Gdańsk, Poland), and with Antibiotic–Antimycotic Solution (Avantor, Gliwice, Poland). Cells were seeded and incubated for 24 h prior to treatment: […] Stock solutions of the tested compounds were prepared in DMSO and stored under appropriate conditions. Immediately prior to the experiment, these solutions were diluted to the desired concentrations using a growth medium. In no dilution was the DMSO content higher than 1% v/v. The resulting solutions were then used to treat cells (100 µL per well). […] In parallel, the influence of copper ions on cellular proliferation was investigated. In this case, the procedure was analogous to the previously described one, with the difference that glycoconjugates were added in the culture medium with the addition of CuCl2. […] ACROS Organics) was applied following the manufacturer’s protocol. Absorbance of the formazan, formed during the test and dissolved in 100 µL of DMSO, was measured spectrophotometrically at 570 nm using a plate reader (Epoch, Bio-Tek, Winooski, VT, USA). The measured absorbance was analyzed to assess proliferation, where tested samples were compared with the untreated controls (100%). The results from MTT were presented as the mean of three experiments (biological replicates). For each experimental condition within a replicate, four technical repetitions were performed. Technical repetitions were averaged to obtain a single value per replicate. Statistical analyses were conducted using means of the biological replicates. The percentage of viable cells and the standard deviation (SD) were calculated in Excel (Microsoft Office 365, A3 for faculty), using the STDEV.S formula, which determines the standard deviation for a sample set. […] The results are expressed as the average value ± standard deviation (SD). To evaluate statistical significance, two-way analysis of variance (ANOVA) with replication was performed to assess the effects of compound type and concentration on cell proliferation. When significant main effects were observed (p < 0.05), pairwise comparisons between betulin (BN) and each analogue at corresponding concentrations were conducted using two-tailed unpaired t-tests. […] All statistical tests were performed in Excel. […] Two cancer cell lines were chosen for the study: HCT 116 (colorectal carcinoma cell line) and MCF-7 (human breast adenocarcinoma cell line). This selection was not random, as in both types of cancer cell lines overexpression of glucose and galactose transporters is observed. To determine if glycoconjugation enhanced the selectivity of the betulin derivatives, cytotoxicity tests on Normal Human Dermal Fibroblast-Neonatal cells (NHDF-Neo) were also conducted. The selection of this healthy cell line, so atypical in relation to the cancer cells tested, was based on the desire to compare the selectivity index determined for the currently obtained glycoconjugates with the results obtained for the betulin derivatives we described earlier and draw preliminary conclusions on structure-selectivity relationships. […] The incubation time for individual cell lines varied from 24 to 72 h, due to differences in the doubling time of these cell lines.

For data set [2], the system named is HCT 116 (colorectal carcinoma cell line). The data set can be described thus: cells. The format is cell-based, human. To be noted: for IC50: Homo sapiens, MTT. The protocol:
as §1, with “Poland).” for “Poland). Cells were seeded and incubated for 24 h prior to treatment:”, “proliferation.” for “proliferation. When significant main effects were observed (p < 0.05), pairwise comparisons between betulin (BN) and each analogue at corresponding concentrations were conducted using two-tailed unpaired t-tests.”, “conducted.” for “conducted. The selection of this healthy cell line, so atypical in relation to the cancer cells tested, was based on the desire to compare the selectivity index determined for the currently obtained glycoconjugates with the results obtained for the betulin derivatives we described earlier and draw preliminary conclusions on structure-selectivity relationships.”

Data set [3] deals with Normal Human Dermal Fibroblast-Neonatal cells (NHDF-Neo). The data set can be described thus: MTT cytotoxicity assay, healthy NHDF-Neo cells. The format is cell-based. To be noted: 24 h, incubation 24 h. The protocol: as §1, with “Poland).” for “Poland). Cells were seeded and incubated for 24 h prior to treatment:”, “proliferation.” for “proliferation. When significant main effects were observed (p < 0.05), pairwise comparisons between betulin (BN) and each analogue at corresponding concentrations were conducted using two-tailed unpaired t-tests.”, “conducted.” for “conducted. The selection of this healthy cell line, so atypical in relation to the cancer cells tested, was based on the desire to compare the selectivity index determined for the currently obtained glycoconjugates with the results obtained for the betulin derivatives we described earlier and draw preliminary conclusions on structure-selectivity relationships.”

The mark [4] stands for this setting: HCT-116, 24 h, incubation 24 h, no copper added.
[5] abbreviates: HCT-116, 48 h, incubation 48 h, addition of CuCl2 at 20 µM.
The mark [6] stands for this setting: HCT-116, 48 h, incubation 48 h, no copper added.

Turning to `C=C(C)C1CCC2(COC(=O)Cn3cc(CO)nn3)CCC3(C)C(CCC4C5(C)CCC(OC(=O)Cn6cc(CO)nn6)C(C)(C)C5CCC43C)C12` (stereo not shown) [3,28-O,O’-bis(2-(4-(hydroxymethyl-1H-1,2,3-triazol-1-yl)acetyl)betulin], the “in vitro activity against the MCF-7 cell line” value in the data set with MCF-7 cell line is listed as “unexpectedly high in vitro activity”. The “toxicity against healthy cells” value in the data set on healthy cells was “showed toxicity against healthy cells”.

As a reminder, the IC50 is the midpoint of a concentration-inhibition curve. For `C=C(C)[C@@H]1CC[C@]2(COC(=O)CCC(=O)OCc3cn(CCO)nn3)CC[C@]3(C)C(CCC4[C@@]5(C)CC[C@H](OC(C)=O)C(C)(C)C5CC[C@]43C)C12` (stereo partly shown) [9a], the IC50 in data set [1] (addition of CuCl2 at 20 µM) is 139 ± 6.21 µM; in data set [1] (no copper added), 148 ± 8.71 µM; in data set [2] (HCT-116, 24 h, incubation 24 h, addition of CuCl2 at 20 µM) it was greater than 200 µM; in data set [2] (setting [4]), greater than 200 µM; in data set [2] (setting [5]), greater than 200 µM; in data set [2] (setting [6]) it was greater than 200 µM. Besides, the IC50 in data set [3] (addition of CuCl2 at 20 µM) and in data set [3] (no copper added) was greater than 200 µM in each case. Further, the “SI MCF-7 (ratio of IC50 of NHDF-Neo to IC50 of cancer cells)” value in data set [1] (no copper added) is reported as greater than 1.4.

As to `C=C(C)[C@@H]1CC[C@]2(COC(=O)CCC(=O)OCc3cn(CCO[C@@H]4O[C@H](COC(C)=O)[C@@H](OC(C)=O)[C@H](OC(C)=O)[C@H]4OC(C)=O)nn3)CC[C@]3(C)C(CCC4[C@@]5(C)CC[C@H](OC(C)=O)C(C)(C)C5CC[C@]43C)C12` (stereo partly shown) [7a], the IC50 in data set [1] (addition of CuCl2 at 20 µM) was 135 ± 10.2 µM; in data set [1] (no copper added) it was 144 ± 4.7 µM; in data set [2] (setting [4]), greater than 200 µM; in data set [2] (setting [5]) it was 150 ± 8.01 µM; in data set [2] (setting [6]), greater than 200 µM; in data set [3] (addition of CuCl2 at 20 µM), greater than 200 µM. In data set [3] (no copper added), the IC50 was greater than 200 µM. The “SI MCF-7 (ratio of IC50 of NHDF-Neo to IC50 of cancer cells)” value in data set [1] (addition of CuCl2 at 20 µM) is on record as greater than 1.5; in data set [1] (no copper added) it was greater than 1.4. Besides, the “SI HCT 116 (ratio of IC50 of NHDF-Neo to IC50 of cancer cells)” value in data set [2] (addition of CuCl2 at 20 µM) is greater than 1.3.

`C=C(C)[C@@H]1CC[C@]2(COC(=O)CCC(=O)OCc3cn(CCCO[C@@H]4O[C@H](COC(C)=O)[C@@H](OC(C)=O)[C@H](OC(C)=O)[C@H]4OC(C)=O)nn3)CC[C@]3(C)C(CCC4[C@@]5(C)CC[C@H](O)C(C)(C)C5CC[C@]43C)C12` (stereo partly shown) [7d]: the IC50 in data set [1] (addition of CuCl2 at 20 µM) was 147 ± 2.32 µM; in data set [1] (no copper added) it was 165 ± 8.32 µM; in data set [2] (setting [4]) it was greater than 200 µM; in data set [2] (setting [5]), 60.4 ± 6.95 µM; in data set [2] (setting [6]), 131 ± 8.76 µM; in data set [3] (addition of CuCl2 at 20 µM), greater than 200 µM. Also, the IC50 in data set [3] (no copper added) was greater than 200 µM. The “SI MCF-7 (ratio of IC50 of NHDF-Neo to IC50 of cancer cells)” value in data set [1] (addition of CuCl2 at 20 µM) is reported as greater than 1.4; in data set [1] (no copper added), greater than 1.2. For the same compound, the “SI HCT 116 (ratio of IC50 of NHDF-Neo to IC50 of cancer cells)” value in data set [2] (no copper added) is greater than 1.5.

Turning to `C=C(C)[C@@H]1CC[C@]2(COC(=O)CCC(=O)OCc3cn([C@@H]4O[C@H](COC(C)=O)[C@@H](OC(C)=O)[C@H](OC(C)=O)[C@H]4OC(C)=O)nn3)CC[C@]3(C)C(CCC4[C@@]5(C)CC[C@H](O)C(C)(C)C5CC[C@]43C)C12` (stereo partly shown) [5c], the IC50 was 70.7 ± 5.44 µM in data set [1] (addition of CuCl2 at 20 µM); 128 ± 1.35 µM in data set [1] (no copper added); greater than 200 µM in data set [2] (setting [4]); greater than 200 µM in data set [2] (setting [5]); greater than 200 µM in data set [2] (setting [6]); greater than 200 µM in data set [3] (addition of CuCl2 at 20 µM). For the same compound, the IC50 in data set [3] (no copper added) is greater than 200 µM. For the same compound, the “SI MCF-7 (ratio of IC50 of NHDF-Neo to IC50 of cancer cells)” value is listed as greater than 2.8 in data set [1] (addition of CuCl2 at 20 µM) and greater than 1.6 in data set [1] (no copper added).
